pIC50: −log10 of the molar value.
Key:
Test in all cases: cells
Conditions in all cases: Homo sapiens
TGBC1TKB = format: functional, cell-based
Description: SANGER: Inhibition of human TGBC1TKB cell growth in a cell viability assay.

MV4-11 = format: functional, cell-based, MV-4-11
Description: SANGER: Inhibition of human MV-4-11 cell growth in a cell viability assay.

TE-1 = format: functional, cell-based
Description: SANGER: Inhibition of human TE-1 cell growth in a cell viability assay.

COLO-320-HSR = format: functional, cell-based
Description: SANGER: Inhibition of human COLO-320-HSR cell growth in a cell viability assay.

KG-1 = format: functional, cell-based
Description: SANGER: Inhibition of human KG-1 cell growth in a cell viability assay.

P30-OHK = format: functional, cell-based
Description: SANGER: Inhibition of human P30-OHK cell growth in a cell viability assay.

NCI-H23 = format: functional, cell-based
Description: SANGER: Inhibition of human NCI-H23 cell growth in a cell viability assay.

OVCAR-4 = format: functional, cell-based
Description: SANGER: Inhibition of human OVCAR-4 cell growth in a cell viability assay.

LB2518-MEL = format: functional, cell-based
Description: SANGER: Inhibition of human LB2518-MEL cell growth in a cell viability assay.

NCI-H1838 = format: functional, cell-based
Description: SANGER: Inhibition of human NCI-H1838 cell growth in a cell viability assay.

VM-CUB-1 = format: functional, cell-based
Description: SANGER: Inhibition of human VM-CUB-1 cell growth in a cell viability assay.

LAN-6 = format: functional, cell-based
Description: SANGER: Inhibition of human LAN-6 cell growth in a cell viability assay.

NH-12 = format: functional, cell-based
Description: SANGER: Inhibition of human NH-12 cell growth in a cell viability assay.

HH = format: functional, cell-based
Description: SANGER: Inhibition of human HH cell growth in a cell viability assay.

LU-134-A = format: functional, cell-based
Description: SANGER: Inhibition of human LU-134-A cell growth in a cell viability assay.

LB2241-RCC = format: functional, cell-based
Description: SANGER: Inhibition of human LB2241-RCC cell growth in a cell viability assay.

NCI-H1092 = format: functional, cell-based
Description: SANGER: Inhibition of human NCI-H1092 cell growth in a cell viability assay.

M14 = format: functional, cell-based
Description: SANGER: Inhibition of human M14 cell growth in a cell viability assay.

SK-MEL-1 = format: functional, cell-based
Description: SANGER: Inhibition of human SK-MEL-1 cell growth in a cell viability assay.

SJSA-1 = format: functional, cell-based
Description: SANGER: Inhibition of human SJSA-1 cell growth in a cell viability assay.

NCI-H526 = format: functional, cell-based
Description: SANGER: Inhibition of human NCI-H526 cell growth in a cell viability assay.

NCI-H446 = format: functional, cell-based
Description: SANGER: Inhibition of human NCI-H446 cell growth in a cell viability assay.

NCI-H630 = format: functional, cell-based
Description: SANGER: Inhibition of human NCI-H630 cell growth in a cell viability assay.

SCH = format: functional, cell-based
Description: SANGER: Inhibition of human SCH cell growth in a cell viability assay.

PSN1 = format: functional, cell-based
Description: SANGER: Inhibition of human PSN1 cell growth in a cell viability assay.

EKVX = format: functional, cell-based
Description: SANGER: Inhibition of human EKVX cell growth in a cell viability assay.

SW982 = format: functional, cell-based
Description: SANGER: Inhibition of human SW982 cell growth in a cell viability assay.

KURAMOCHI = format: functional, cell-based
Description: SANGER: Inhibition of human KURAMOCHI cell growth in a cell viability assay.

no-11 = format: functional, cell-based
Description: SANGER: Inhibition of human no-11 cell growth in a cell viability assay.

EW-13 = format: functional, cell-based
Description: SANGER: Inhibition of human EW-13 cell growth in a cell viability assay.

NCI-H1355 = format: functional, cell-based
Description: SANGER: Inhibition of human NCI-H1355 cell growth in a cell viability assay.

NCI-H1770 = format: functional, cell-based
Description: SANGER: Inhibition of human NCI-H1770 cell growth in a cell viability assay.

HuP-T4 = format: functional, cell-based
Description: SANGER: Inhibition of human HuP-T4 cell growth in a cell viability assay.

TE-11 = format: functional, cell-based
Description: SANGER: Inhibition of human TE-11 cell growth in a cell viability assay.

L-363 = format: functional, cell-based
Description: SANGER: Inhibition of human L-363 cell growth in a cell viability assay.

KYSE-410 = format: functional, cell-based
Description: SANGER: Inhibition of human KYSE-410 cell growth in a cell viability assay.

G-401 = format: functional, cell-based
Description: SANGER: Inhibition of human G-401 cell growth in a cell viability assay.

GB-1 = format: functional, cell-based
Description: SANGER: Inhibition of human GB-1 cell growth in a cell viability assay.

KGN = format: functional, cell-based
Description: SANGER: Inhibition of human KGN cell growth in a cell viability assay.

LS-123 = format: functional, cell-based
Description: SANGER: Inhibition of human LS-123 cell growth in a cell viability assay.

PANC-08-13 = format: functional, cell-based
Description: SANGER: Inhibition of human PANC-08-13 cell growth in a cell viability assay.

SK-MEL-2 = format: functional, cell-based
Description: SANGER: Inhibition of human SK-MEL-2 cell growth in a cell viability assay.

RCC10RGB = format: functional, cell-based
Description: SANGER: Inhibition of human RCC10RGB cell growth in a cell viability assay.

CAS-1 = format: functional, cell-based
Description: SANGER: Inhibition of human CAS-1 cell growth in a cell viability assay.

HEL = format: functional, cell-based
Description: SANGER: Inhibition of human HEL cell growth in a cell viability assay.

IST-MES1 = format: functional, cell-based
Description: SANGER: Inhibition of human IST-MES1 cell growth in a cell viability assay.

EFM-19 = format: functional, cell-based
Description: SANGER: Inhibition of human EFM-19 cell growth in a cell viability assay.

KARPAS-299 = format: functional, cell-based
Description: SANGER: Inhibition of human KARPAS-299 cell growth in a cell viability assay.

ES6 = format: functional, cell-based
Description: SANGER: Inhibition of human ES6 cell growth in a cell viability assay.

LU-99A = format: functional, cell-based
Description: SANGER: Inhibition of human LU-99A cell growth in a cell viability assay.

EFO-21 = format: functional, cell-based
Description: SANGER: Inhibition of human EFO-21 cell growth in a cell viability assay.

A498 = format: functional, cell-based
Description: SANGER: Inhibition of human A498 cell growth in a cell viability assay.

SK-N-FI = format: functional, cell-based
Description: SANGER: Inhibition of human SK-N-FI cell growth in a cell viability assay.

MN-60 = format: functional, cell-based
Description: SANGER: Inhibition of human MN-60 cell growth in a cell viability assay.

RXF 393 = format: functional, cell-based
Description: SANGER: Inhibition of human RXF393 cell growth in a cell viability assay.

SH-4 = format: functional, cell-based
Description: SANGER: Inhibition of human SH-4 cell growth in a cell viability assay.

ATN-1 = format: functional, cell-based
Description: SANGER: Inhibition of human ATN-1 cell growth in a cell viability assay.

SF-268 = format: functional, cell-based
Description: SANGER: Inhibition of human SF268 cell growth in a cell viability assay.

NKM-1 = format: functional, cell-based
Description: SANGER: Inhibition of human NKM-1 cell growth in a cell viability assay.

EW-11 = format: functional, cell-based
Description: SANGER: Inhibition of human EW-11 cell growth in a cell viability assay.

Lu-65 = format: functional, cell-based
Description: SANGER: Inhibition of human LU-65 cell growth in a cell viability assay.

LU-139 = format: functional, cell-based
Description: SANGER: Inhibition of human LU-139 cell growth in a cell viability assay.

NCI-H69 = format: functional, cell-based
Description: SANGER: Inhibition of human NCI-H69 cell growth in a cell viability assay.

NCI-H720 = format: functional, cell-based
Description: SANGER: Inhibition of human NCI-H720 cell growth in a cell viability assay.

## O=c1cc(N2CCOCC2)oc2c(-c3cccc4c3sc3ccccc34)cccc12
TGBC1TKB
  pIC50: < 5.70
MV4-11
  pIC50: < 5.70
TE-1
  pIC50: < 5.70
COLO-320-HSR
  pIC50: < 5.70
KG-1
  pIC50: < 5.70
P30-OHK
  pIC50: < 5.70
NCI-H23
  pIC50: < 5.70
OVCAR-4
  pIC50: < 5.70
LB2518-MEL
  pIC50: < 5.70
NCI-H1838
  pIC50: < 5.70
VM-CUB-1
  pIC50: < 5.70
LAN-6
  pIC50: < 5.70
NH-12
  pIC50: < 5.70
HH
  pIC50: 5.93
LU-134-A
  pIC50: < 5.70
LB2241-RCC
  pIC50: < 5.70
NCI-H1092
  pIC50: < 5.70
M14
  pIC50: < 5.70
SK-MEL-1
  pIC50: 5.75
SJSA-1
  pIC50: < 5.70
NCI-H526
  pIC50: 6.55
NCI-H446
  pIC50: < 5.70
NCI-H630
  pIC50: < 5.70
SCH
  pIC50: < 5.70
PSN1
  pIC50: < 5.70
EKVX
  pIC50: < 5.70
SW982
  pIC50: < 5.70
KURAMOCHI
  pIC50: < 5.70
no-11
  pIC50: < 5.70
EW-13
  pIC50: < 5.70
NCI-H1355
  pIC50: < 5.70
NCI-H1770
  pIC50: 7.67
HuP-T4
  pIC50: < 5.70
TE-11
  pIC50: < 5.70
L-363
  pIC50: < 5.70
KYSE-410
  pIC50: < 5.70
G-401
  pIC50: < 5.70
GB-1
  pIC50: < 5.70
KGN
  pIC50: < 5.70
LS-123
  pIC50: < 5.70
PANC-08-13
  pIC50: < 5.70
SK-MEL-2
  pIC50: < 5.70
RCC10RGB
  pIC50: < 5.70
CAS-1
  pIC50: < 5.70
HEL
  pIC50: < 5.70
IST-MES1
  pIC50: < 5.70
EFM-19
  pIC50: < 5.70
KARPAS-299
  pIC50: < 5.70
ES6
  pIC50: < 5.70
LU-99A
  pIC50: < 5.70
EFO-21
  pIC50: < 5.70
A498
  pIC50: < 5.70
SK-N-FI
  pIC50: < 5.70
MN-60
  pIC50: < 5.70
RXF 393
  pIC50: < 5.70
SH-4
  pIC50: < 5.70
ATN-1
  pIC50: < 5.70
SF-268
  pIC50: < 5.70
NKM-1
  pIC50: < 5.70
EW-11
  pIC50: < 5.70

## CC(=O)c1c(C)c2cnc(Nc3ccc(N4CCNCC4)cn3)nc2n(C2CCCC2)c1=O [PALBOCICLIB]
TGBC1TKB
  pIC50: < 5.40
MV4-11
  pIC50: 6.29
TE-1
  pIC50: < 5.40
COLO-320-HSR
  pIC50: < 5.40
KG-1
  pIC50: 5.90
P30-OHK
  pIC50: < 5.40
NCI-H23
  pIC50: < 5.40
OVCAR-4
  pIC50: < 5.40
LB2518-MEL
  pIC50: < 5.40
VM-CUB-1
  pIC50: < 5.40
LAN-6
  pIC50: < 5.40
Lu-65
  pIC50: < 5.40
NH-12
  pIC50: < 5.40
HH
  pIC50: 6.22
LU-134-A
  pIC50: < 5.40
LB2241-RCC
  pIC50: 5.93
NCI-H1092
  pIC50: < 5.40
M14
  pIC50: < 5.40
SK-MEL-1
  pIC50: < 5.40
SJSA-1
  pIC50: 5.62
NCI-H526
  pIC50: < 5.40
NCI-H446
  pIC50: < 5.40
NCI-H630
  pIC50: < 5.40
SCH
  pIC50: < 5.40
PSN1
  pIC50: < 5.40
EKVX
  pIC50: < 5.40
SW982
  pIC50: < 5.40
KURAMOCHI
  pIC50: < 5.40
no-11
  pIC50: < 5.40
EW-13
  pIC50: < 5.40
NCI-H1355
  pIC50: 5.59
NCI-H1770
  pIC50: 6.03
LU-139
  pIC50: < 5.40
HuP-T4
  pIC50: < 5.40
TE-11
  pIC50: 5.98
L-363
  pIC50: 5.73
KYSE-410
  pIC50: < 5.40
G-401
  pIC50: 5.72
GB-1
  pIC50: < 5.40
KGN
  pIC50: 5.55
LS-123
  pIC50: < 5.40
NCI-H69
  pIC50: < 5.40
PANC-08-13
  pIC50: < 5.40
SK-MEL-2
  pIC50: < 5.40
RCC10RGB
  pIC50: < 5.40
CAS-1
  pIC50: < 5.40
HEL
  pIC50: 5.89
IST-MES1
  pIC50: 5.42
EFM-19
  pIC50: < 5.40
KARPAS-299
  pIC50: < 5.40
ES6
  pIC50: < 5.40
LU-99A
  pIC50: < 5.40
EFO-21
  pIC50: < 5.40
A498
  pIC50: < 5.40
SK-N-FI
  pIC50: < 5.40
MN-60
  pIC50: 5.64
RXF 393
  pIC50: 6.09
NCI-H720
  pIC50: < 5.40
SH-4
  pIC50: < 5.40
ATN-1
  pIC50: < 5.40
SF-268
  pIC50: 5.65
NKM-1
  pIC50: 6.39
EW-11
  pIC50: < 5.40
